These results are taken from patent publication US12180307B2, “Interleukin-13 binding cyclic oligopeptides and methods of use thereof” (B.A.I. LABORATORIES, LLC, priority 2022, dated 2024).

Values joined by “and” are separate entries in the source; they are usually repeats but may differ in a detail not shown here. Identical values can stand only once. Square brackets hold non-standard residues; d marks the D form. Peptide text beside a SMILES is read from it.

Data set [1] in a line: FIG. 8D. The procedure:
Table printed on a drawing sheet, FIG. 8D
The patent's description of the figure: FIG. 8A provides the MS spectrum for Compound 7. FIG. 8B provides the HPLC chromatogram for Compound 7. FIG. 8C provides SPR assay curves showing the binding affinity of Compound 7 for IL-13, the x-axis represents time of reaction and y-axis represents altitude of response (Response Units). FIG. 8D illustrates skin permeation rate of Compound 7 for up to 24 hours. FIG. 8E illustrates average permeability coefficient (Kp) of Compound 7 for 1, 2, 4, 8, 12 and 24 hours.
First reader's note: The substance name Compound 7 comes from the legend of the plot printed above the table; the values are skin permeation over time in three replicates with their average and range.

Data set [2] in a line: Skin permeability, Franz Cell diffusion cell with artificial skin, Transdermal Diffusion Tester, BCA assay. Type of data set: in vitro ADME. As to conditions: for Average Permeation Rate After 24 Hours (%) / Average Permeation Rate After 1 Hour (%): 32° C., 1.0 mg/mL in PBS; for Papp at 1 h, 1 mg/mL / Average Permeation Rate After 1 Hour (%): after 1 hour; for Papp at 1 h, 1 mg/mL: read-out: Average Permeability Coefficient (Kp) After 1 hour (converted). How it is done: As used herein, the term “skin permeation rate” of a cyclic oligopeptide is measured using artificial skin (Start M, Merck), and refers to the percentage of the cyclic oligopeptide that penetrate the artificial skin after certain amount of time. For example, if 60% of the total amount of a cyclic oligopeptide of this disclosure has penetrated the artificial skin after 24 hours, then the skin permeation rate of the cyclic oligopeptide is 60% after 24 hours.
As used herein, the term “skin permeability coefficient (Kp)” refers to the rate at which the cyclic oligopeptide penetrates the skin, as measured using artificial skin (Start M, Merck). In some embodiments, permeability coefficient (Kp)(cm/hr) is calculated with the following equation:
[formula] wherein Q(mg) refers to the total amount of cyclic oligopeptide that pass through the artificial skin within a certain amount of time; A(cm^2) refers to the internal cross-section area of the artificial skin in a diffusion cell; T(hr) refers to the total amount of time of cyclic oligopeptide permeation; and ΔC(mg/mL) refers to the concentration difference of the cyclic oligopeptide between the two sides of the artificial skin. In some embodiments, the diffusion cell is a Franz Cell.
Skin permeability of the cyclic oligopeptides generated in Example 1 was measured using Transdermal Diffusion Tester (TK-12D, Shanghai Kai Kai Industrial Co Ltd) and artificial skin (Start M, Merck). Three parallel experimental groups were set up for each sample. The skin permeability of cyclic oligopeptides was evaluated by the following steps: • 1) 2.0 mg cyclic oligopeptide was weighed and dissolved in 100 μL DMSO. Three parallel experimental groups were set up for each cyclic oligopeptide. The cyclic oligopeptide-containing solution was then slowly added dropwise to 1900 μL 1×PBS solution and mixed evenly to prepare a PBS solution with a final concentration of 1.0 mg/mL cyclic polypeptide. • 2) A magnetron was inserted into a Franz Cell diffusion cell, and an artificial skin was sandwiched in the middle of the diffusion cell with the smooth side of the artificial skin facing up. The diffusion cell was then fixed with clamps after assembly. • 3) 7.75 ml 1×PBS solution were then added to the diffusion cell without generating bubbles in the diffusion cell. The sampling port of the diffusion cell was then sealed with parafilm to reduce evaporation. • 4) The temperature of a Transdermal Diffusion Tester was then set to 32° C., and the magneton speed was set to 180 r/min. • 5) The assembled diffusion cell was then put into the Transdermal Diffusion Tester and preheated for 5-10 mins. • 6) 400 μL of 1.0 mg/mL cyclic oligopeptide solution prepared in step 1) was then added to the upper chamber of the diffusion cell, making it evenly dispersed on the surface of the artificial skin without air bubbles. The top port of the diffusion cell was then covered with parafilm to reduce evaporation. • 7) Starting from the time of adding the cyclic oligopeptide solution, samples of about 0.5 mL of the receiving solution were taken at six time points, 1 h, 2 h, 4 h, 8 h, 12 h and 24 h, using a plastic dropper to take out the samples from the sampling port of the diffusion cell. 0.5 mL of 1×PBS solution was added into the diffusion cell to restore the initial volume of the receiving solution. When sampling, the diffusion cell was tilted appropriately to avoid the generation of bubbles. The samples were then numbered and store at −20° C. • 8) A BCA Assay (Micro BCA Protein Assay Kit, Thermo Scientific) was conducted to measure the concentration of cyclic oligopeptide in samples obtained in step 7) (Actual Concentration of the cyclic oligopeptide at the particular time point). Three parallel groups were used. The weight of cyclic oligopeptide in each sample obtained in step 7) equals to Actual Concentration×0.5 mL. • 9) Permeation rate of each cyclic oligopeptide at each time point was calculated according to the following equation: […]

Data set [3] addresses Human IL-13 (Homo sapiens, UniProt P35225). Briefly: Surface plasmon resonance (SPR) binding assay, BIAcore 8K plus, immobilized Fc-tagged IL-13. The conditions noted are these: 25° C., human IL-13 with Fc-tag immobilized on CM5 chip, read-out: Binding Affinity (KD) for IL-13. How it is done: A SPR assay was conducted to determine the binding affinity of the cyclic oligopeptides generated in Example 1 for IL-13 using a BIAcore 8K plus instrument (GE Healthcare). Human IL-13 with an Fc-tag was immobilized onto the surfaces of Series S Sensor CM5 (GE Healthcare) chips in the range of 5000 resonance units (RU). The binding kinetics were performed at 25° C. with a flow rate of 30 μL/min. The cyclic oligopeptides were analyzed in running buffer comprising 20 mM PBS, 2.7 mM KCl, […], 0.0500 Surfactant P20, pH 7.4, 1% DMSO, starting at 100 μM with gradient of ten two-fold dilutions using solvent correction mode.
FIGS. 2C, 3C, 4C, 5C, 6C, 7C, 8C, 9C, 10C, 11C, and 12C provide SPR response curves for the cyclic oligopeptides generated in Example 1, wherein the x-axis represents time of reaction and y-axis represents altitude of response (Response Units).
On the technique in general: In SPR one partner is held on a chip, and binding of the other changes the refractive index at the surface.

A short description of data set [4]: FIG. 9D. How it is done:
Table printed on a drawing sheet, FIG. 9D
The patent's description of the figure: FIG. 9A provides the MS spectrum for Compound 8. FIG. 9B provides the HPLC chromatogram for Compound 8. FIG. 9C provides SPR assay curves showing the binding affinity of Compound 8 for IL-13, the x-axis represents time of reaction and y-axis represents altitude of response (Response Units). FIG. 9D illustrates skin permeation rate of Compound 8 for up to 24 hours. FIG. 9E illustrates average permeability coefficient (Kp) of Compound 8 for 1, 2, 4, 8, 12 and 24 hours.
First reader's note: The substance name is taken from the legend of the plot printed above the table in the same figure; the values are three replicate permeation rates, their average and their range.

The nature of data set [5]: FIG. 10D. How it is done: Table printed on a drawing sheet, FIG. 10D
The patent's description of the figure: FIG. 10A provides the MS spectrum for Compound 9. FIG. 10B provides the HPLC chromatogram for Compound 9. FIG. 10C provides SPR assay curves showing the binding affinity of Compound 9 for IL-13, the x-axis represents time of reaction and y-axis represents altitude of response (Response Units). FIG. 10D illustrates skin permeation rate of Compound 9 for up to 24 hours. FIG. 10E illustrates average permeability coefficient (Kp) of Compound 9 for 1, 2, 4, 8, 12 and 24 hours.
First reader's note: The substance name is taken from the legend of the plot printed above the table; three replicate permeation values, their average and their range per time point.

Data set [6] can be described thus: FIG. 11D. How it is done:
Table printed on a drawing sheet, FIG. 11D
The patent's description of the figure: FIG. 11A provides the MS spectrum for Compound 10. FIG. 11B provides the HPLC chromatogram for Compound 10. FIG. 11C provides SPR assay curves showing the binding affinity of Compound 10 for IL-13, the x-axis represents time of reaction and y-axis represents altitude of response (Response Units). FIG. 11D illustrates skin permeation rate of Compound 10 for up to 24 hours. FIG. 11E illustrates average permeability coefficient (Kp) of Compound 10 for 1, 2, 4, 8, 12 and 24 hours.
First reader's note: The substance name comes from the legend of the plot above the table; columns 2-4 are three replicate permeation measurements, followed by their average and range.

A short description of data set [7]: FIG. 12D. The procedure: Table printed on a drawing sheet, FIG. 12D
The patent's description of the figure: FIG. 12A provides the MS spectrum for Compound 11. FIG. 12B provides the HPLC chromatogram for Compound 11. FIG. 12C provides SPR assay curves showing the binding affinity of Compound 11 for IL-13, the x-axis represents time of reaction and y-axis represents altitude of response (Response Units). FIG. 12D illustrates skin permeation rate of Compound 11 for up to 24 hours. FIG. 12E illustrates average permeability coefficient (Kp) of Compound 11 for 1, 2, 4, 8, 12 and 24 hours.
First reader's note: The substance name is taken from the legend of the plot printed above the table on the same sheet; the last column is the range (max minus min) of the three replicates.

Human IL-13, sequence (P35225 25-146): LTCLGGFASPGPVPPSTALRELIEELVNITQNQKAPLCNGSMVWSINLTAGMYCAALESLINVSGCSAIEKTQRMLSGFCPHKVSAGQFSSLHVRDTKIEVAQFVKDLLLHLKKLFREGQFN

Broadly, the Kd is the concentration at which binding is half-saturated. For the compound `CC(C)C[C@H]1NC(=O)[C@@H]2CCCN2C(=O)[C@@H](Cc2ccccc2)NC(=O)[C@H](CCCNC(=N)N)NC(=O)[C@H]([C@@H](C)O)NC(=O)[C@H]2CCCN2C1=O` [Compound 7, Thr Arg D-Phe Pro D-Leu D-Pro] (cyclo(P[dL][dP]TR[dF])), the “Permeation Avg. (%)” value in data set [1] is 28.31% and 31.36% and 33.66% and 36.74%. In addition, the “Average Permeation Rate After 24 Hours (%)” value in data set [2] (after 24 hours) amounted to 38.84%. In addition, the Papp at 1 h, 1 mg/mL in data set [2] is 15.2 ×10⁻⁶ cm/s. Also, the Kd in data set [3] worked out at 85.1 µM.

For `CSCC[C@@H]1NC(=O)[C@H](Cc2c[nH]c3ccccc23)NC(=O)[C@@H]2CCCN2C(=O)[C@H](CCC(=O)O)NC(=O)[C@H](CCCNC(=N)N)NC(=O)[C@@H](CC(C)C)NC(=O)[C@@H]2CCCN2C1=O` [Compound 8, D-Leu Arg Glu Pro Trp Met Pro] (cyclo(EPWMP[dL]R)), in data set [2], the “Average Permeation Rate After 1 Hour (%)” value is listed as 12.44% and the Papp at 1 h, 1 mg/mL is 7.39 ×10⁻⁶ cm/s. Also, the “Average Permeation Rate After 24 Hours (%)” value in data set [2] (after 24 hours) is 35.20%. Further, the Papp at 24 h, 1 mg/mL in data set [2] (after 24 hours, read-out: Average Permeability Coefficient (Kp) After 24 hours) was more than 0.0278 ×10⁻⁶ cm/s. Also, in data set [4], the “Permeation Avg. (%)” value is 17.57% and 23.24% and 27.76% and 32.33%.

`CC(C)C[C@@H]1NC(=O)[C@@H](CCCNC(=N)N)NC(=O)[C@@H]2CCCN2C(=O)[C@H](CCC(=O)O)NC(=O)[C@@H]([C@H](C)O)NC(=O)[C@H](Cc2c[nH]c3ccccc23)NC(=O)[C@@H](Cc2c[nH]c3ccccc23)NC1=O` [Compound 9, D-Arg Leu D-Trp Trp D-Thr Glu Pro] (cyclo(EP[dR]L[dW]W[dT])): the Papp at 1 h, 1 mg/mL in data set [2] is 14 ×10⁻⁶ cm/s. In data set [5], the “Permeation Avg. (%)” value was 31.10% and 41.93% and 48.23% and 55.09%. In data set [3], the Kd is 337 µM.

Take `N=C(N)NCCC[C@@H]1NC(=O)[C@H]2CCCN2C(=O)[C@@H](Cc2c[nH]c3ccccc23)NC(=O)[C@H]2CCCN2C(=O)[C@H](CS)NC(=O)[C@H](Cc2ccc(O)cc2)NC(=O)[C@H](CC(=O)O)NC1=O` [Compound 10, Arg Asp Tyr Cys D-Pro D-Trp D-Pro] (cyclo(C[dP][dW][dP]RDY)): the “Permeation Avg. (%)” value in data set [6] is 29.18% and 39.99% and 47.96% and 56.44%. Further, in data set [2], the “Average Permeation Rate After 1 Hour (%)” value came to 18.96% and the Papp at 1 h, 1 mg/mL is 11.7 ×10⁻⁶ cm/s. In addition, the equilibrium dissociation constant (Kd) in data set [3] was determined as 368 µM.

Regarding `CC(C)C[C@@H]1NC(=O)[C@@H](C(C)C)NC(=O)[C@@H](Cc2c[nH]c3ccccc23)NC(=O)[C@@H](CC(C)C)NC(=O)[C@@H]2CCCN2C(=O)[C@H](C(C)C)NC(=O)[C@@H]2CCCN2C(=O)[C@H](CCCNC(=N)N)NC1=O` [Compound 11, Val Pro D-Leu D-Trp D-Val Leu Arg Pro] (cyclo(LRPVP[dL][dW][dV])), the “Permeation Avg. (%)” value in data set [7] was 15.61% and 19.18% and 21.74% and 23.90%. For the same compound, in data set [2], the “Average Permeation Rate After 1 Hour (%)” value came to 11.77% and the Papp at 1 h, 1 mg/mL was 7.22 ×10⁻⁶ cm/s. For the same compound, in data set [3], the dissociation constant Kd worked out at 622 µM.
